# Experimental data from patent US20080292584A1 (priority 2005, published 2008).
# Values joined by “and” are separate entries in the source; they are usually repeats but may differ in a detail not shown here. Equal values may be shown once. Read-outs that look alike come from different tables or passages of the source.
# Columns and labels:
# CYP1A2 [1] = molecular target: T1, CYP1A2 (Homo sapiens, UniProt P05177); assay: Inhibition of CYP1A2 activity in pooled human liver microsomes (phenacetin 50 μM to acetaminophen); format: in vitro ADME
# T1 sequence (P05177 1-516): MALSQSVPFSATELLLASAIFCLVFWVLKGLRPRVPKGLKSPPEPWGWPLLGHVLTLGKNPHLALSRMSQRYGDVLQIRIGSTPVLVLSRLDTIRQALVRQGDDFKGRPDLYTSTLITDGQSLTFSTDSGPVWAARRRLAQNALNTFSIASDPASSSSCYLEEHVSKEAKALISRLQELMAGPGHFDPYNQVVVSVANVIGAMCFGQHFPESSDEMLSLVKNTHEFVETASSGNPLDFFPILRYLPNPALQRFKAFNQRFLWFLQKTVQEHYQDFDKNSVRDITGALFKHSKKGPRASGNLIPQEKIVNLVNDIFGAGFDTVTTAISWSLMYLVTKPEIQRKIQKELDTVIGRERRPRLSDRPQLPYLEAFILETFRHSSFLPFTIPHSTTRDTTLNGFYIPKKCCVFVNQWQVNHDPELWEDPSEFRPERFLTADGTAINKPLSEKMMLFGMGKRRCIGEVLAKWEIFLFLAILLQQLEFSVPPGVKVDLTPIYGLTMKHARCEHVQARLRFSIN
# Protocol: Microsomes were prepared by differential centrifugation of liver homogenates pooled from at least ten human donors.
# After a 5 minute preincubation, NADPH regenerating system (NRS) was added to initiate the reaction. CYP2A6 and CYP3A4 incubations were for 10 minutes. All other incubations were for 30 minutes.
# Incubations for CYP2C8 were terminated by adding 1.0 mL of ACN, while all other incubations were terminated by adding 1.0 mL of methanol.
# Vehicle control experiments were performed to establish a baseline value for enzyme activity. […] Four replicates were performed.
# Two replicates were performed. […] No interference was detected in any of the metabolite assay methods used.
# CYP2D6 [2] = molecular target: T2, CYP2D6 (Homo sapiens, UniProt P10635); assay: Inhibition of CYP2D6 activity in pooled human liver microsomes (dextromethorphan 5 μM to dextrorphan); format: in vitro ADME
# T2 sequence (P10635 whole entry): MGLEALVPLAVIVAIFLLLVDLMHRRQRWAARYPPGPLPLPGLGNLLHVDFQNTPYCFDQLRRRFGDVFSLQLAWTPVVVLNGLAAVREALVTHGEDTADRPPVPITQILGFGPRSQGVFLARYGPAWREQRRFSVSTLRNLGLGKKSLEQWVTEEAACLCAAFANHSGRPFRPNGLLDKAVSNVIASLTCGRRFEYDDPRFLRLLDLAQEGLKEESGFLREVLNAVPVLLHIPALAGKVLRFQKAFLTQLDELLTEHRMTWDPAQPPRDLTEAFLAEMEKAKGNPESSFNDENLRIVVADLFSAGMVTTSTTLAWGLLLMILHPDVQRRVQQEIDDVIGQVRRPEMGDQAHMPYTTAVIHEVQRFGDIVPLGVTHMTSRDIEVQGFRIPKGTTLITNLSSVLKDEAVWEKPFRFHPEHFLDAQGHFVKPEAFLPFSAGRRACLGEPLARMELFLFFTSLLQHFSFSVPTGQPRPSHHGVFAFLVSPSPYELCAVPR
# Protocol: All other incubations were for 30 minutes.
# Four replicates were performed.
# Two replicates were performed.
# CYP1A2 [3] = assay: Induction/inhibition of CYP1A2 activity in cryopreserved human hepatocytes after 48 h exposure (phenacetin)
# From the text: (§1) Hepatocytes from three human donors were obtained from a cryopreserved hepatocyte bank (In Vitro Technologies, Inc., USA). After thawing, viable hepatocytes were transferred to collagen-coated 48-well plates for attachment in plating medium (DMEM stock (Dulbecco's modified Eagle's medium, supplemented with bovine serum albumin, fructose, N-(2-hydroxyethyl)piperazine-N′-(2-ethanesulfonate) (HEPES), and sodium bicarbonate), supplemented with antibiotics, bovine serum, hydrocortisone, insulin and minimum essential medium (MEM) nonessential amino acids). After attachment to the collagen matrix, plating medium was replaced with sandwich medium (plating medium supplemented with VITROGEN) and incubated until use.
# (§2) The supplemented KHB was replaced with 150 μL supplemented KHB containing the appropriate isoform-selective substrate and incubated for 4 hrs prior to termination by adding 150 μL ice-cold methanol, except for the CYP2C8 incubations which were terminated by adding 150 μL acetonitrile.
# (§3) All substrates were dissolved in acetonitrile.
# (§4) Replicate trials and controls were performed. […] Additionally, reference control samples were included to evaluate inducibility of CYP2B6, CYP2C9, and CYP2C19 in the test system.
# (§5) Mean specific activity values with associated p-values≦0.05 were deemed to be statistically significant.
# CYP2C9 [4] = molecular target: T3, CYP2C9 (Homo sapiens, UniProt P11712); assay: Induction/inhibition of CYP2C9 activity in cryopreserved human hepatocytes (tolbutamide)
# T3 sequence (P11712 whole entry): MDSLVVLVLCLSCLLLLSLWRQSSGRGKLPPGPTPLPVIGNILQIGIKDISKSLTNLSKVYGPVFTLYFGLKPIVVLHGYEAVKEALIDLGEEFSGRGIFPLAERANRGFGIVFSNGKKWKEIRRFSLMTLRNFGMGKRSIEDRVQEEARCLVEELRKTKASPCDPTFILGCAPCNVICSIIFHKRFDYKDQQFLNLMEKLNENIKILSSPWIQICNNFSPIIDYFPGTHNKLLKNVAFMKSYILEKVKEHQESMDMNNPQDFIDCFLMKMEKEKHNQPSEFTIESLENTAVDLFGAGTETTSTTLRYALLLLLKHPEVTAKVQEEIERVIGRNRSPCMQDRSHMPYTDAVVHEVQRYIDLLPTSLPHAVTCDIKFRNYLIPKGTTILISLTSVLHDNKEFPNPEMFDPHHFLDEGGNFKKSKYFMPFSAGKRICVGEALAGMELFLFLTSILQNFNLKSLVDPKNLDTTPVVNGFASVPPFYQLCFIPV
# From the text: as §1, §2, §3, §4, §5
# CYP2C9 [5] = molecular target: T3, CYP2C9; settings: 1 mg/mL HLM, 60 min, with sulfaphenazole; for % Turnover / % inhibition of turnover / Conc.: single replicates
# Protocol: (§6) Human liver microsomes pooled from 15 individuals (male and female) (Pool HMMC-PL020; CellzDirect, Inc., In Vitro Products and Services Division) were used in some experiments of this study.
# (§7) % Turnover=100−{[TA(final)]/[mean of TA(0 min)]}×100,
# (§8) % Inhibition of Turnover=100{1−([TA(0 min)]−[TA(final-inhibitor)])/([TA(0 min)]−[TA(final-no inhibitor)])}.
# (§9) The inhibitors or vehicle control were incubated with the pooled human liver microsomes (1 mg/mL) and NADPH (1 mM) in 0.1 M phosphate buffer, pH 7.4. […] Incubations were conducted in triplicate and terminated by addition of organic solvent. Samples were extracted and analyzed by LC-MS/MS as described above.
# CYP2C8 = molecular target: T4, CYP2C8 (Homo sapiens, UniProt P10632); assay: Chemical inhibition of metaxalone turnover in human liver microsomes, CYP2C8 inhibitor quercetin; settings: 1 mg/mL HLM, 60 min, with quercetin, single replicates
# T4 sequence (P10632 1-490): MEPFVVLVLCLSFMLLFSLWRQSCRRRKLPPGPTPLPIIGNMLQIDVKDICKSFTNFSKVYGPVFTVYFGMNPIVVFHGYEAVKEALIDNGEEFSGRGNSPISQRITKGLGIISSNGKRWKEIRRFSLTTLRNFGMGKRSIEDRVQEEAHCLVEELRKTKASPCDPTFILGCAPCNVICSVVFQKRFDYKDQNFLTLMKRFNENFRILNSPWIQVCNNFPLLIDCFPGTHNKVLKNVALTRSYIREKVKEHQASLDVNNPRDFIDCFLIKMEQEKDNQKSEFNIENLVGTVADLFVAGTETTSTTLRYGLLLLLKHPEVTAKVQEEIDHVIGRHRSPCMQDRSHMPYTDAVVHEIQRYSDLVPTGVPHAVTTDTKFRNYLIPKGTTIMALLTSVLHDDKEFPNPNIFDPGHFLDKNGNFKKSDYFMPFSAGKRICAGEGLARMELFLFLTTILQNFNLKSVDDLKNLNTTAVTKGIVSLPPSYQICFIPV
# Protocol: as §6, §7, §8, §9
# CYP2D6 [6] = molecular target: T2, CYP2D6; assay: Chemical inhibition of metaxalone turnover in human liver microsomes, CYP2D6 inhibitor quinidine; settings: 7.5 μM metaxalone; 1 mg/mL HLM; 60 min; with quinidine; single replicates
# Protocol: as §6, §7, §8, §9
# [7] = human, hepatocytes, 48 h, 40 μM
compound,measurement,setting,value
"Cc1cc(C)cc(OCC2CNC(=O)O2)c1 (centres unmarked) [metaxalone, 5-[(3,5-dimethylphenoxy)methyl]-2-oxazolidinone]",inhibition of CYP activity at a statistically significant level,"CYP1A2 [1]; 0.3-100 μM metaxalone, p≦0.05",inhibited
same,Inhibitor,"CYP1A2 [1]; CYP isozyme 1A2, summary of studies",+
same,Percent of VC,CYP1A2 [1]; metaxalone 0.3 μM,97.2%
same,Specific Activity Individual,CYP1A2 [1]; metaxalone 0.3 μM,28.6 pmol/min/mg protein and 27.2 pmol/min/mg protein
same,Specific Activity Mean ± SD,CYP1A2 [1]; metaxalone 0.3 μM,28.0 ± 0.715 pmol/min/mg protein
same,Percent of VC,CYP1A2 [1]; metaxalone 1 μM,92.3%
same,Specific Activity Individual,CYP1A2 [1]; metaxalone 1 μM,26.6 pmol/min/mg protein
same,Specific Activity Mean ± SD,CYP1A2 [1]; metaxalone 1 μM,26.6 ± 0.327 pmol/min/mg protein
same,Percent of VC,CYP1A2 [1]; metaxalone 3 μM,90.3%
same,Specific Activity Individual,CYP1A2 [1]; metaxalone 3 μM,26.5 pmol/min/mg protein and 25.1 pmol/min/mg protein and 26.4 pmol/min/mg protein
same,Specific Activity Mean ± SD,CYP1A2 [1]; metaxalone 3 μM,26.0 ± 0.785 pmol/min/mg protein
same,Percent of VC,CYP1A2 [1]; metaxalone 30 μM,89.8%
same,Specific Activity Individual,CYP1A2 [1]; metaxalone 30 μM,25.2 pmol/min/mg protein and 25.8 pmol/min/mg protein and 26.7 pmol/min/mg protein
same,Specific Activity Mean ± SD,CYP1A2 [1]; metaxalone 30 μM,25.9 ± 0.725 pmol/min/mg protein
same,Percent of VC,CYP1A2 [1]; metaxalone 100 μM,82.0%
same,Specific Activity Individual,CYP1A2 [1]; metaxalone 100 μM,23.7 pmol/min/mg protein and 23.6 pmol/min/mg protein (2×)
same,Specific Activity Mean ± SD,CYP1A2 [1]; metaxalone 100 μM,23.6 ± 0.0275 pmol/min/mg protein
same,inhibition of CYP activity at a statistically significant level,"CYP2D6 [2]; 0.3-100 μM metaxalone, p≦0.05",inhibited
same,Inhibitor,"CYP2D6 [2]; CYP isozyme 2D6, summary of studies",+
same,Percent of VC,CYP2D6 [2]; metaxalone 0.3 μM,81.3%
same,Specific Activity Individual,CYP2D6 [2]; metaxalone 0.3 μM,39.5 pmol/min/mg protein and 39.2 pmol/min/mg protein and 40.5 pmol/min/mg protein
same,Specific Activity Mean ± SD,CYP2D6 [2]; metaxalone 0.3 μM,39.8 ± 0.688 pmol/min/mg protein
same,Percent of VC,CYP2D6 [2]; metaxalone 1 μM,84.2%
same,Specific Activity Individual,CYP2D6 [2]; metaxalone 1 μM,42.4 pmol/min/mg protein and 41.3 pmol/min/mg protein
same,Specific Activity Mean ± SD,CYP2D6 [2]; metaxalone 1 μM,41.2 ± 1.28 pmol/min/mg protein
same,Percent of VC,CYP2D6 [2]; metaxalone 3 μM,89.3%
same,Specific Activity Individual,CYP2D6 [2]; metaxalone 3 μM,43.0 pmol/min/mg protein and 44.8 pmol/min/mg protein
same,Specific Activity Mean ± SD,CYP2D6 [2]; metaxalone 3 μM,43.7 ± 0.940 pmol/min/mg protein
same,Percent of VC,CYP2D6 [2]; metaxalone 30 μM,85.1%
same,Specific Activity Individual,CYP2D6 [2]; metaxalone 30 μM,41.4 pmol/min/mg protein and 42.6 pmol/min/mg protein and 40.9 pmol/min/mg protein
same,Specific Activity Mean ± SD,CYP2D6 [2]; metaxalone 30 μM,41.6 ± 0.893 pmol/min/mg protein
same,Percent of VC,CYP2D6 [2]; metaxalone 100 μM,85.9%
same,Specific Activity Individual,CYP2D6 [2]; metaxalone 100 μM,42.6 pmol/min/mg protein and 41.3 pmol/min/mg protein and 42.2 pmol/min/mg protein
same,Specific Activity Mean ± SD,CYP2D6 [2]; metaxalone 100 μM,42.0 ± 0.680 pmol/min/mg protein
same,Inducer/Inhibitor,CYP1A2 [3],+
same,Percent of VC,"CYP1A2 [3]; Donor 2, Metaxalone 40 μM",197%
same,Acetaminophen formation Adjusted Mean ± SD,"CYP1A2 [3]; human, 4 h, 40 μM",0.0589 ± 0.00795 µM
same,Acetaminophen formation Adjusted Mean ± SD,"CYP1A2 [3]; human, 48 h, 4 μM",0.0443 ± 0.000214 µM
same,effect on CYP1A2 activity,CYP1A2 [3]; [7],induced CYP1A2 activity
same,Inducer/Inhibitor,CYP2C9 [4],−
same,Percent of VC,"CYP2C9 [4]; Donor 1, Metaxalone 0.4 μM",108%
same,Percent of VC,"CYP2C9 [4]; Donor 1, Metaxalone 4 μM",100%
same,Percent of VC,"CYP2C9 [4]; Donor 1, Metaxalone 40 μM",<73.2%
same,Percent of VC,"CYP2C9 [4]; Donor 2, Metaxalone 4 μM",92.9%
same,Percent of VC,"CYP2C9 [4]; Donor 2, Metaxalone 40 μM",60.4%
same,Percent of VC,"CYP2C9 [4]; Donor 3, Metaxalone 0.4 μM",111%
same,Percent of VC,"CYP2C9 [4]; Donor 3, Metaxalone 40 μM",78.4%
same,Specific Activity Mean ± SD,"CYP2C9 [4]; Donor 3, Metaxalone 40 μM",0.127 ± 0.005 pmol/min/million cells
same,Specific Activity Mean ± SD,"CYP2C9 [4]; human, 48 h, 0.4 µM",0.179 ± 0.0111 pmol/min/million cells
same,Specific Activity Mean ± SD,"CYP2C9 [4]; human, 48 h, 4 µM",0.167 ± 0.0210 pmol/min/million cells
same,effect on CYP2C9 activity,CYP2C9 [4]; [7],significantly reduced CYP2C9 activity
same,% Turnover Mean,CYP2C9 [5]; 0.75 μM metaxalone,5.53%
same,% inhibition of turnover Mean,CYP2C9 [5]; 0.75 μM metaxalone,81.4%
same,Mean Conc.,CYP2C9 [5]; 0.75 μM metaxalone,0.729 µM
same,% Turnover,CYP2C9 [5]; 0.75 μM metaxalone,5.4% and 5.6% (2×)
same,% inhibition of turnover,CYP2C9 [5]; 0.75 μM metaxalone,81.9% and 81.3%
same,Conc.,CYP2C9 [5]; 0.75 μM metaxalone,0.730 µM
same,% Turnover Mean,CYP2C9 [5]; 7.5 μM metaxalone,11.6%
same,% inhibition of turnover Mean,CYP2C9 [5]; 7.5 μM metaxalone,52.8%
same,Mean Conc.,CYP2C9 [5]; 7.5 μM metaxalone,7.52 µM
same,% Turnover,CYP2C9 [5]; 7.5 μM metaxalone,10.2% and 12.6%
same,% inhibition of turnover,CYP2C9 [5]; 7.5 μM metaxalone,51.0% and 58.5% and 48.8%
same,Conc.,CYP2C9 [5]; 7.5 μM metaxalone,7.49 µM and 7.65 µM and 7.44 µM
same,% Turnover,CYP2C8; 0.75 μM metaxalone,14.3%
same,Conc.,CYP2C8; 0.75 μM metaxalone,0.661 µM
same,% Turnover,CYP2C8; 7.5 μM metaxalone,−1.8%
same,% inhibition of turnover,CYP2C8; 7.5 μM metaxalone,107%
same,% Turnover,CYP2D6 [6],11.1%
